From publication PMC4138991, “Building a Better Dynasore: The Dyngo Compounds Potently Inhibit Dynamin and Endocytosis” (Traffic (Copenhagen, Denmark), 2013)
“Also recorded” adds a separate entry of the source. Read-outs that look alike come from different tables or passages of the source.

Tests used:
[1] = biological target: T1, recombinant rat dynamin II (Rattus norvegicus, UniProt P39052); test: Dynamin II GTPase assay (PS-stimulated); format: biochemical
T1 sequence (P39052 1-870): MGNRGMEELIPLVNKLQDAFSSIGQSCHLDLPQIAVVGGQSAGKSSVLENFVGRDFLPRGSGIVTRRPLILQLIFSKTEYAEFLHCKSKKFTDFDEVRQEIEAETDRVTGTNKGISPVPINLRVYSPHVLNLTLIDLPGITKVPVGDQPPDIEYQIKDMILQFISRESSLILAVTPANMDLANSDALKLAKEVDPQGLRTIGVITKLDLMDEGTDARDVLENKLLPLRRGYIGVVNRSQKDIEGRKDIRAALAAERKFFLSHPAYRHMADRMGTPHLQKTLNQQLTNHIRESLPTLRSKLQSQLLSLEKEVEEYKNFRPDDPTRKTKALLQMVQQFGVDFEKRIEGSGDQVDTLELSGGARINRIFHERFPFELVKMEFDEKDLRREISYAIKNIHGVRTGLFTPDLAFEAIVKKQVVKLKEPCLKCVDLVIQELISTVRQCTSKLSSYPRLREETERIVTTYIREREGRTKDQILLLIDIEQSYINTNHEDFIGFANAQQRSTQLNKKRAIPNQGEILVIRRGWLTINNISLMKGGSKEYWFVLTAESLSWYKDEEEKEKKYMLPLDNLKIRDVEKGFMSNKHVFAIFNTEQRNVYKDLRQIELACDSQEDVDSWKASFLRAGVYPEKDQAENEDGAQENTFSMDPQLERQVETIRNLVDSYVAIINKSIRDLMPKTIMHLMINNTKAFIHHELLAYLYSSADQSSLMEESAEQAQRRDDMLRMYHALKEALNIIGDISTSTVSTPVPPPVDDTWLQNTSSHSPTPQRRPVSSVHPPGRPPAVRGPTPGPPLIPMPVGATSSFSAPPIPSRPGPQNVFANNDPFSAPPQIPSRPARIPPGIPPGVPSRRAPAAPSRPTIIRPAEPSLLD
Source text: Recombinant dynamin I was used only for the data in Table 2. The dynamin antibodies were from: Dynamin I—in‐house YF2 antibodies, raised in rabbits against two different synthetic peptides: dynamin I 629‐647 ([…]) and dynamin I 765–778 ([…]), used at 1/2000 dilution, as previously described 53; Dynamin II—Santa Cruz (C‐18, sc‐6400, used at 1/1000) and Dynamin III—Santa Cruz (P‐13, sc‐69472, used at 1/500 dilution).
Assay conditions were based on the dynamin I assay but contained modifications. Recombinant dynamin II was used at 50 nM, stimulated by 10 µg/mL PS. The GTPase reaction was allowed to occur for 90 min at 37°C before termination.

[2] = tested on: cultured CGNs; test: Fluorescent dextran uptake (ADBE) in CGNs; format: cell-based, rat; conditions: 30 μM, 15 min
Protocol: Granule neuron cultures were prepared from the cerebella of 7‐day‐old rat pups as previously described 57. In all experiments, neurons were used between 8 and 10 days in vitro.
Uptake of tetramethyrhodamine‐dextran (40 kDa) into nerve terminals of CGNs was monitored as described previously 40. Briefly, cells were left for 10 min in incubation medium and then stimulated with a train of 800 action potentials (80 Hz for 10 seconds) in the presence of tetramethyrhodamine‐dextran (50 μM). Dyngo compound 4a (30 μM) was present for 15 min prior to and including action potential stimulation. Dextran loading was determined by the number of fluorescent puncta in a defined field of view ([…]) using a 20× air objective at 550‐nm excitation and >575‐nm emission. Threshold analysis was performed to discount regions too large to represent individual nerve terminals (diameter greater than […]). The number of dextran puncta per field for each experiment (usually 10 fields of view per experiment) was averaged and subtracted from background fluorescence. To ensure that the density of nerve terminals was consistent between fields and experimental conditions, experiments were performed on the same set of cultures.

[3] = tested on: dynamin I SAI activity (rings); test: Self-assembly-induced (SAI) dynamin GTPase activity; format: biochemical, sheep; conditions: presence of Tween, 500 nM dynamin
Protocol: The Malachite Green colorimetric GTPase assay was as described 10. Dynamin I activity was measured in its SAI activity state or was stimulated by three different methods. As each stimulus activates dynamin to different extents, each assay required different dynamin concentrations. First, maximal dynamin activity was stimulated by sonicated PS liposomes 10. Purified dynamin I (10–20 nM, diluted in: 6 mM Tris–HCl, 20 mM NaCl and 0.01% Tween 80, pH 7.4) was incubated in 96‐well plates in GTPase buffer (5 mM Tris–HCl, 10 mM NaCl, 2 mM Mg^2+, 0.05% Tween 80, pH 7.4, 1 µg/mL leupeptin and 0.1 mM PMSF) and GTP 0.3 mM in the presence of test compound for 30 min at 37°C in a final assay volume of 150 μL. Reactions were terminated with 10 μL of 0.5 M ethylenediaminetetraacetic acid (EDTA) pH 7.4 and Malachite Green solution (40 μL: 2% w/v ammonium molybdate tetrahydrate, 0.15% w/v malachite green and 4 M HCl) was added for 5 min. Second, dynamin (20 nM) was stimulated by 10 µg/mL of taxol‐stabilized preformed bovine brain microtubules (Cytoskeleton, Inc) using the same protocol. […] Finally, dynamin (500 nM) SAI activity was measured using high concentrations of dynamin, which promote its cooperative self‐assembly into rings (but not helices) 26. […] After the Vmax and Km values were determined, the data were transformed using the Lineweaver–Burke equation, 1/v = 1/Vmax + (Km/Vmax)(1/[S]).

Row | SMILES | IC50 ([1]; Absence of Tween, DynII 50 nM, no unit in table, read-out: IC50 DynII (rec)) [µM] | IC50 ([1]; Presence of Tween, DynII 50 nM, no unit in table, read-out: IC50 DynII (rec)) [µM] | maximum block of ADBE measured by dextran uptake [2] [%] | inhibition of SAI (self-assembly) activity [3] | IC50 ([1]; detergent removed from the assay, n = 2, read-out: IC50 full-length helical dynamin II) [µM] | effect on dynamin II ([1]; standard assay with Tween-80, up to 1.5 mM)
1 | O=C(N/N=C/c1cc(O)c(O)cc1O)c1cc2ccccc2cc1O [4a, (E)-3-Hydroxy-N'-(2,4,5-trihydroxybenzylidene) -2-naphthohydrazide] | 2.3 ± 0.2 | 92.3 ± 10.9 | > 80 | not at all inhibited; also recorded: without effect |  | 
2 | O=C(N/N=C/c1ccc(O)c(O)c1)c1cc2ccccc2cc1O [Dynasore, (E)-N'-(3,4-Dihydroxybenzylidene)-3-hydroxy-2-naphthohydrazide] |  |  |  | did not block | 18.1 ± 0.2 | no effect
